# Experimental data: patent US12239651B2, “Treatment of hearing loss” (Massachusetts Eye and Ear Infirmary, priority 2018, dated 2025)
# “Also recorded” adds a separate entry of the source.
# Experiments:
# [1] = test system: adult rtTA/tet-NICD cochlea; experiment: Proliferation and HC regeneration in Dox-treated adult rtTA/tet-NICD cochlea culture with ad-Atoh1; type: cell-based, mouse; settings: for EdU+ (proliferating) cells: Dox (NICD activation) plus MHY1485, ad-Atoh1, vs Dox alone/DMSO controls, SE and Lib; for HC regeneration by ad-Atoh1 (new HCs, MYO7A+/PVALB+): Dox (NICD activation) plus MHY1485 and ad-Atoh1 vs Dox and ad-Atoh1 without MHY1485
# From the text: (§1) Survival was studied by analysis of apoptosis.
# The prominent roles in proliferation and cell growth by mTOR provided evidence that it may compensate for part of the MYC functions. To determine if mTOR activation is sufficient to replace MYC to induce proliferation in adult cochlea, mTOR was activated in Dox-treated rtTA/tet-NICD adult cochlea culture by MHY1485, a small molecule mTOR activator^8 (FIG. 1K).
# (§2) To evaluate if mTOR is sufficient to induce proliferation, wildtype adult mouse cochlea were cultured and treated with MYH1485 to activate mTOR pathway followed by ad-Atoh1 infection for hair cell regeneration. […] Thus activation of mTOR by MHY1485 is sufficient to induce proliferation in adult/mature cochlea and it improves hair cell regeneration efficiency mediated by Atoh1.
# [2] = test system: wildtype adult mouse cochlea; experiment: Proliferation and hair cell regeneration in cultured adult wildtype cochlea with ad-Atoh1; type: cell-based; settings: wildtype adult cochlea culture, ad-Atoh1 infection 14 days, MHY1485 treated vs ad-Atoh1 only
# Experimental: as §1, §2
# [3] = test system: adult rtTA/tet-MYC/tet-NICD cochlea; settings: 6 days Dox with vs without rapamycin, in vitro; SE and Lib regions
# From the text: SOX2 labeled SCs. […] Arrows pointed to SOX2^+/EdU^+/p-rpS6^+ cells. […] Error bar, mean±SEM; n=5. […] Error bar, mean±SEM; n=5. (FIG. 1K) A diagram illustrating the study of the effect of mTOR activator MHY1485 on proliferation and HC regeneration. […] (FIGS. 1N-1O) Quantification of EdU^+ cells, MYO7A^+ HCs and ectopic HCs in 1-m″. *p<0.05, Student's t-test. Error bar, mean±SEM; n=5.
# Whole cochlea explant organ culture and microinjection into adult cochlea were used for the study in vitro and in vivo, respectively. NOTCH1 and c-MYC were activated in adult wild type mice by virus-mediated delivery, or in adult doxycycline-inducible rtTA/tet-MYC/tet-NICD transgenic mice through supplement of doxycycline in vitro and in vivo. EdU and BrdU incorporation was used to study proliferation. Lineage tracing using Sox2-promoter-driven Cre mice (Sox2-CreER) crossed with the tdTomato (tdT) reporter mice was conducted to identify the origin of proliferating cells. The mechanisms underlying reprograming were studied by qRT-PCR, immunolabeling and the effectors that modulate mTOR pathway. Survival was studied by analysis of apoptosis.
# It was hypothesized that the reprogramming effect in adult cochlea by MYC/NICD may be mediated in part by the mTOR pathway.
structure (smiles),measurement,setting,value
O=[N+]([O-])c1ccc(Nc2nc(N3CCOCC3)nc(N3CCOCC3)n2)cc1 [MHY1485],EdU+ (proliferating) cells,[1],observed in the sensory epithelium and the limbus regions; also recorded: most proliferating cells; also recorded: Significantly more
same,EdU+ (proliferating) cells,[1]; listed as MHY 1485,most proliferating cells
same,"HC regeneration by ad-Atoh1 (new HCs, MYO7A+/PVALB+)",[1],most regenerated hair cells; also recorded: Significantly more
same,"HC regeneration by ad-Atoh1 (new HCs, MYO7A+/PVALB+)",[1]; listed as MHY 1485,most proliferating cells and hair cells
same,"HC regeneration by ad-Atoh1 (new HCs, MYO7A+/PVALB+)",[1]; listed as MYH1485,more HC regeneration
same,number of EdU+ cells compared with Myc/NICD co-activation,[1]; NICD activation and MHY1485 treatment vs Myc/NICD co-activation,fewer
same,EdU labeled (proliferating) cochlear cells,[2],numerous proliferating cells
same,hair cell regeneration (PVALB+/MYO7a+),[2],More hair cells were regenerated; also recorded: enhanced hair cell regeneration
same,EdU labeled (proliferating) cochlear cells,[2]; listed as MHY 1485,Abundant EdU labeled cochlear cells
COc1ccc(C[C@H](N)C(=O)N[C@H]2[C@@H](O)[C@H](n3cnc4c(N(C)C)ncnc43)O[C@@H]2CO)cc1 [puromycin],number of EdU+ cells induced by Myc/NICD co-activation,[3],suppresses proliferation
